Laboratory results reported in patent US11154551B2, “HDAC1,2 inhibitors and methods of using the same” (UNIVERSITY OF UTAH RESEARCH FOUNDATION, priority 2014, dated 2021).
Entries after “also recorded” stand apart in the source; their conditions may differ.

Experiments:
[1] = target: T1, HDAC1 (Homo sapiens, UniProt Q13547); assay: in vitro HDAC enzyme assay with recombinant enzyme; conditions: from biochemical IC50 values, recombinant enzymes
T1 construct: purchased BPS Biosciences
Description: (§1) Among class I HDACs, Hdac1,2 share a 50% sequence homology with Hdac3. Therefore, we first determined the selectivity of ACY-957 towards HDAC1 and HDAC2 in in vitro enzyme assays using recombinant enzymes.

[2] = target: T2, HDAC2 (Homo sapiens, UniProt Q92769); assay: in vitro HDAC enzyme assay with recombinant enzyme; conditions: from biochemical IC50 values, recombinant enzymes
T2 construct: purchased BPS Biosciences
Description: as §1

[3] = system: Karpas-422 cells; assay: propidium-iodide / BrdU-PI cell cycle analysis; format: cell-based, human
Method: (B): Quantitation of the cell cycle data in (A), compiled from three independent analyses. The graphs plotted the average percentage of cells in each phase of the cell cycle. […] (C): FACS analysis following BrdU-PI staining of Karpas-422 and SUDHL4 cells was performed following a 48 h or 72 h treatment with ACY-957.
Cell cycle analysis of propidium-iodide stained cells was performed with fixed cells. […] (C): FACS analysis following BrdU-PI staining of Karpas-422 and SUDHL4 cells was performed following a treatment with 2 μM ACY-957, 50 nM doxorubicin or both for 48 h.
(B): Quantitation of the cell cycle analysis performed in (A). Data from three independent cell cycle analyses were compiled and average percentage cells with standard errors were shown in this panel.
Propidium-iodide Cell Cycle Analysis.
Since these DLBCL cells expressed a hyperactive form of EZH2, pharmacological inhibition of EZH2 activity was considered a therapeutic strategy. […] GSK126 was a S-adenosyl-methionine-competitive inhibitor of EZH2 methyltransferase activity, and DZNep was a S-adenosylhomocysteine hydrolase inhibitor that disrupted the components of the PRC2 complex, thereby causing reduced chromatin-associated EZH2 levels.
To test this possibility, cell cycle analysis following treatment of Karpas-422 with ACY-957, doxorubicin, or ACY-957 in combination with doxorubicin was performed.

[4] = system: Karpas-422 and SUDHL4 cells; assay: Western blot of chromatin extracts for H3K27ac and H3K27me3; format: cell-based, human
Method: Western blot analysis was done with anti-H3K27ac, H3K27me3 or EZH2 and histone H3 served as a loading control.
Following DMSO or ACY-957 treatment, cells were exposed to a 5Gy dose of ionizing radiation and allowed to recover for 30 minutes prior to chromatin extraction. Western blots were performed with anti-H3K27ac or anti-H3K27me3 with histone H3 serving as a loading control. (B-E): Karpas-422, SUDHL4, WSU-DLCL2 and HeLa cells were laser micro-irradiated and allowed to recover for 15 minutes before fixation and immunofluorescence staining with anti-γH2AX and anti-H3K27me3. Subsequently, the percentage of cells with H3K27me3 lines that co-localized with γH2AX were counted. Merge is the overlay of γH2AX and H3K27me3 pictures. (F-I): At least 100 cells with γH2AX lines were counted in each experiment. The quantitation shown was the average calculated from independent experiments+/−standard error. Quantitation from five, seven, five and six independent experiments performed in Karpas-422, SUDHL4, WSU-DLCL2 and HeLa cells, respectively, was used in the graph shown in this figure. (J): Karpas-422 cells were micro-irradiated with a laser and allowed to recover for 15 minutes before fixation and immunofluorescence staining was performed with anti-γH2AX and anti-H3K27ac.
Protein Preparation and Western Blot Analysis.
The histone H3K27 residue was subjected to reversible acetylation and methylation. […] We also treated cells with the second EZH2 inhibitor, GSK126 alone, or combined with ACY-957 (ACY-957+GSK126). […] Cells were treated for 48 h prior to preparing chromatin extracts for Western analysis using antibodies recognizing H3K27ac or H3K27me3.
We first examined whether inhibiting HDAC1,2 activity induced any change in global H3K27ac or H3K27me3 on chromatin following DNA damage and during DNA repair. SUDHL4 or Karpas-422 cells with or without exposure to ionizing radiation (IR) were initially treated with DMSO or ACY-957 for 48 hr. Chromatin extracts were prepared from these cells following a 30 min recovery period (the repair phase) and changes in histone modifications were examined by Western blotting.

[5] = system: Hdac1,2 or Hdac3 knockout cell lines; assay: Western blot of H4K5ac in conditional Hdac1,2 or Hdac3 knockout cells; format: cell-based, mouse
Method: For IC50 determination, recombinant HDAC enzymes were treated with HDAC1,2 or HDAC3 inhibitors in in vitro HDAC assays. (B). Western blots for H3K23ac using extracts from Pre-B-ALL SupB15 cells treated with increasing dose of HDAC1,2 inhibitor (ACY1035). (C). Hdac1^FI/FI, 2^FI/FI cells were infected with Ad-Cre virus to delete HDAC1 and HDAC2 (HDAC1,2 null) or uninfected (WT). (D). Hdac3^FI/FI cells were either uninfected (WT) or infected with Ad-Cre virus to delete Hdac3.

[6] = system: Karpas-422 (EZH2GOF) cells; assay: neutral comet assay of DSB repair; format: cell-based, human
Description: (A) Measurement of repair efficiency in SUDHL5 (EZH2^WT) and Karpas-422 (EZH2^GOF) cells using neutral comet assay that detects only double-strand breaks (DSBs). In the comet, the head (H) represents intact DNA and the tail (T) represents the number of DSBs in a single cell. Tail moment is a measure of length and intensity of DNA in the tail, and the average tail moments from 100 comets are indicated within the figure for each cell/treatment combination. Doxo indicates doxorubicin; H121N indicates HDAC1,2 inhibitor. (B) DNA damage in EZH2GOF cells following knockdown of HDAC1,2 using siRNA. NT indicates non-targeting control siRNA; HDAC1,2 siRNA indicates combined treatment with HDAC1 siRNA and HDAC2 siRNA. (C) Karpas-422 cells treated with DMSO solvent or HDAC1,2 inhibitor were subjected to microlaser irradiation. H3K27me3, γH2AX, Bmi-1, and serine2-phosphorylated RNA Polymerase II (engaged in transcriptional elongation) were monitored at laser break sites (arrows) after 15 minutes of recovery time. Numbers overlaying the images indicate percentages of cells with γH2AX lines that co-localized with H3K27me3, Bmi-1, or Pol2Ser2-P lines from at least four independent experiments (p value<0.01).
Indeed, EZH2, H3K27me3, and HDAC1,2 all localize to sites of DNA breaks, which links them to DNA repair. […]

T1 sequence (Q13547 whole entry): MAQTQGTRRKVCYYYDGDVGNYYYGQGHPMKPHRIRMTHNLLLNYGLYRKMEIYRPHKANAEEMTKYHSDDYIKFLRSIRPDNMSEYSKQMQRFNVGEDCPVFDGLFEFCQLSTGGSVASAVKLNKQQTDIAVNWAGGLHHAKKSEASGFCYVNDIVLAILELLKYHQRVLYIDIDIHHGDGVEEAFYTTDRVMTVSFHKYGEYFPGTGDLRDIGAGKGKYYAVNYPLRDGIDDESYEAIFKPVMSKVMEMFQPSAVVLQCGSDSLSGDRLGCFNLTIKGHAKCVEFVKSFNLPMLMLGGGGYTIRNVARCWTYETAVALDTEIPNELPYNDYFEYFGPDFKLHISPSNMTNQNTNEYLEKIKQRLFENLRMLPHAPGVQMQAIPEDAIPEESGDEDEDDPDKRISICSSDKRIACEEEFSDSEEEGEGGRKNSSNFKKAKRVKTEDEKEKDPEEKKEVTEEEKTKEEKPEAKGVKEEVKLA
T2 sequence (Q92769 whole entry): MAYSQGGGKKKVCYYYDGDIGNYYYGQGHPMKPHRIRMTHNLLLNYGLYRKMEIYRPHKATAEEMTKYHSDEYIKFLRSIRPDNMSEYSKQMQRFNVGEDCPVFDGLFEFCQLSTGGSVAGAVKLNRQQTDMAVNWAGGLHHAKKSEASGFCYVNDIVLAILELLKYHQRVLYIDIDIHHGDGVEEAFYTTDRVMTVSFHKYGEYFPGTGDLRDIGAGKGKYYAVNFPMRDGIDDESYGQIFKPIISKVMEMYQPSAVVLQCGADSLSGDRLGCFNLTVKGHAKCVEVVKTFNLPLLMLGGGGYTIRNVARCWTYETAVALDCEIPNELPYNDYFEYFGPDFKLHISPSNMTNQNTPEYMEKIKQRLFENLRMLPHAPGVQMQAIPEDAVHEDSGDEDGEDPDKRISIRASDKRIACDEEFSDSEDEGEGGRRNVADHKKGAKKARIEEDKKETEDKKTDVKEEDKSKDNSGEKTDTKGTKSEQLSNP

For Nc1ccc(-c2cccs2)cc1NC(=O)c1ccc2nc(N3CCNCC3)ccc2c1 [ACY-957, N-(2-amino-5-(thiophen-2-yl)phenyl)-2-(piperazin-1-yl)quinoline-6-carboxamide], the “selectivity for HDAC1 when compared to HDAC3” value [1] was 185 fold, the “selectivity for HDAC2 when compared to HDAC3” value [2] was 72 fold and the “cell death / sub-G1 population” value ([3]; 2 μM ACY-957, 50 nM doxorubicin or both, 48 h) was “sub-G1 population (i.e., dead cells) was observed”. The “progression through the cell cycle” value ([3]; 24 h, 2 μM ACY-957, 0.5 μM DZNEP, 0.5 μM GSK126) was “did not affect their progression through the cell cycle”, the “cell cycle / sub-G1 (dead cells)” value ([3]; 48 h, 2 μM ACY-957, 0.5 μM DZNEP, 0.5 μM GSK126) was “modest accumulation of sub-G1 population” and the “S-phase population, BrdU-PI FACS” value ([3]; 48 h and 72 h, accompanied by increased cell death) was “decrease in S-phase population”. For the same compound, the “cell cycle / sub-G1 (dead cells)” value ([3]; 72 h, 2 μM ACY-957, 0.5 μM DZNEP, 0.5 μM GSK126) was “larger increase in the number of sub-G1/dead cells; also recorded: large increase in the number of sub-G1 or dead Karpas-422 cells”, the “global H3K27ac levels” value ([4]; 48 h, chromatin extracts) was “robust increase in global H3K27ac levels” and the “global H3K27me3 levels” value ([4]; 48 h, chromatin extracts) was “remained unchanged”. The “global H3K27me3 levels on chromatin” value ([4]; 48 hr, 30 min recovery from IR) was “concomitant decrease in global H3K27me3 levels on chromatin was not observed”, the “global H3K27ac levels on chromatin” value ([4]; 48 hr, with or without exposure to IR) was “increased” and the “H4K5ac in Hdac3-null cells” value [5] was “additive increase in H4K5ac”. For the same compound, the “DSBs, comet tail moment” value [6] was “increase in comet tail moment”.
